Laboratory results from patent US8449896B2, “Pharmaceutical composition having improved solubility” (Daiichi Sankyo Company, Limited, priority 2009, dated 2013).

Test: solubility of compound I in aqueous solutions
Type: physicochemical

solubility in a neutral aqueous solution (neutral aqueous solution (e.g., a neutral buffer)): reduced solubility
solubility in a strongly acidic aqueous solution (strongly acidic aqueous solution): favorable solubility
Compound: CN1CCc2nc(C(=O)N[C@@H]3C[C@@H](C(=O)N(C)C)CC[C@@H]3NC(=O)C(=O)Nc3ccc(Cl)cn3)sc2C1 [compound I, N^1-(5-chloropyridin-2-yl)-N^2-((1S,2R,4S)-4-[(dimethylamino)carbonyl]-2-{[(5-methyl-4,5,6,7-tetrahydrothiazolo[5,4-c]pyridin-2-yl)carbonyl]amino}cyclohexyl)ethanediamide]
